Source: patent US4525589A, “Isoquinolinesulfonyl derivatives” (Asahi Kasei Kogyo Kabushiki Kaisha, priority 1981, dated 1985)

What follows are molecules tested on mesenteric artery (assay: Relaxation of mesenteric artery (helical strips contracted with KCl, organ bath)). Details: Oryctolagus cuniculus; concentration for 50% relaxation; KCl 15~20 mM contraction; read-out: Relaxation of Mesenteric Artery ED50.
Parameters: species or system rabbit (home bred, Japanese species)
Protocol: After a home bred rabbit of a Japanese species weighing about 3 Kg was subjected to bloodletting, resulting in death and then to abdominal incision, the mesenteric artery was taken out, cut into helicoids of 2 mm×25 mm and suspended in a 20 ml organ bath filled with a Krebs-Henseleit solution into which a mixed gas of 95% by volume of O2 and 5% by volume of CO2 was introduced and one end of the artery was connected with an isometric transducer. When a load of 1.5 g was applied to the artery, the contraction and the relaxation of the artery were recorded as a weight on the transducer (a product of Nippon Koden K.K., Japan, "FD Pickup TB-912T"). The relaxation of the mesenteric artery was observed by adding the isoquinolinesulfonyl derivatives and their pharmaceutically acceptable acid addition salts of this invention to the mesenteric artery at the condition of about one half of the maximum contraction with KCl at a KCl concentration of 15~20 mM. When the complete relaxation of the mesenteric artery was designated 100%, the concentration of the isoquinolinesulfonyl derivatives and their pharmaceutically acceptable acid addition salts which brought about a relaxation of 50% is shown in Table 12.

First: NCCCNS(=O)(=O)c1cccc2cnccc12 [Compound (2), N-(3-aminopropyl)-5-isoquinolinesulfonamide]
Second: NCCCCNS(=O)(=O)c1cccc2cnccc12 [Compound (3), N-(4-aminobutyl)-5-isoquinolinesulfonamide]
The EC50 of the first is 1.6-fold lower: 7 µM for the first, 11 µM for the second.

`NCCCCCCNS(=O)(=O)c1cccc2cnccc12` [Compound (4), N-(6-aminohexyl)-5-isoquinolinesulfonamide] and `NCCCCCCCCCCNS(=O)(=O)c1cccc2cnccc12` [Compound (5), N-(10-aminodecyl)-5-isoquinolinesulfonamide] are within 1.5-fold of each other in EC50: 10 µM for the first, 14 µM for the second.

Compared with `CC(CN)NS(=O)(=O)c1cccc2cnccc12` (centres unmarked) [Compound (6), N-(2-amino-1-methylethyl)-5-isoquinolinesulfonamide], `CCC(CN)NS(=O)(=O)c1cccc2cnccc12` (centres unmarked) [Compound (7), N-(1-aminomethylpropyl)-5-isoquinolinesulfonamide] is 2.1-fold higher in EC50: 10 µM for the first, 21 µM for the second.

Going from `CCCCC(CN)NS(=O)(=O)c1cccc2cnccc12` (centres unmarked) [Compound (8), N-(1-aminomethylpentyl)-5-isoquinolinesulfonamide] to `CCNS(=O)(=O)c1cccc2cnccc12` [Compound (26), N-ethyl-5-isoquinolinesulfonamide], the EC50 falls from 19 µM to 8.8 µM (2.2-fold). The second is the more potent here.

First: CC(N)CNS(=O)(=O)c1cccc2cnccc12 (centres unmarked) [Compound (9), N-(2-aminopropyl)-5-isoquinolinesulfonamide]
Second: CC(C)C(N)CNS(=O)(=O)c1cccc2cnccc12 (centres unmarked) [Compound (11), N-(2-amino-3-methylbutyl)-5-isoquinolinesulfonamide]
The EC50 of the first is 1.9-fold lower: 15 µM for the first, 28 µM for the second. The first is the more potent here.

`NCC(NS(=O)(=O)c1cccc2cnccc12)c1ccccc1` (centres unmarked) [Compound (12), N-(2-amino-1-phenylethyl)-5-isoquinolinesulfonamide] and `NC(CNS(=O)(=O)c1cccc2cnccc12)c1ccccc1` (centres unmarked) [Compound (13), N-(2-amino-2-phenylethyl)-5-isoquinolinesulfonamide] are within 1.5-fold of each other in EC50: 18 µM for the first, 25 µM for the second.

`CNCCNS(=O)(=O)c1cccc2cnccc12` [Compound (14), N-(2-methylaminoethyl)-5-isoquinolinesulfonamide] and `CC(C)NCCNS(=O)(=O)c1cccc2cnccc12` [Compound (16), N-(2-isopropylaminoethyl)-5-isoquinolinesulfonamide] are within 1.5-fold of each other in EC50: 12 µM for the first, 10 µM for the second.

Compared with `CN(C)CCCNS(=O)(=O)c1cccc2cnccc12` [Compound (17), N-(3-dimethylaminopropyl)-5-isoquinolinesulfonamide], `CCN(CC)CCCNS(=O)(=O)c1cccc2cnccc12` [Compound (18), N-(3-diethylaminopropyl)-5-isoquinolinesulfonamide] is 3-fold higher in EC50: 10 µM for the first, 30 µM for the second.

First: CCCCN(CCCC)CCCNS(=O)(=O)c1cccc2cnccc12 [Compound (19), N-(3-di-n-butylaminopropyl)-5-isoquinolinesulfonamide]
Second: CN(CCCNS(=O)(=O)c1cccc2cnccc12)C1CCCCC1 [Compound (22), N-[3-(N-methyl-N-cyclohexylamino)propyl]-5-isoquinolinesulfonamide]
The EC50 of the first is 2.5-fold lower: 17 µM for the first, 42 µM for the second. The first is the more potent here.

`O=S(=O)(NCCCN1CCCCC1)c1cccc2cnccc12` [Compound (20), N-(3-piperidinopropyl)-5-isoquinolinesulfonamide] and `O=S(=O)(NCCCN1CCOCC1)c1cccc2cnccc12` [Compound (21), N-(3-morpholinopropyl)-5-isoquinolinesulfonamide] are within 1.5-fold of each other in EC50: 42 µM for the first, 50 µM for the second.

Going from `CN(CCCNS(=O)(=O)c1cccc2cnccc12)c1ccccc1` [Compound (23), N-[3-(N-methyl-N-phenylamino)propyl]-5-isoquinolinesulfonamide] to `CN(CCCNS(=O)(=O)c1cccc2cnccc12)Cc1ccccc1` [Compound (24), N-[3-(N-methyl-N-benzylamino)propyl]-5-isoquinolinesulfonamide], the EC50 rises from 4 µM to 17 µM (4.2-fold). The first is the more potent here.

Molecule `CNS(=O)(=O)c1cccc2cnccc12` [Compound (25), N-methyl-5-isoquinolinesulfonamide] has an EC50 of 13 µM.
